In ChEMBL document CHEMBL1201862, “PubChem BioAssay data set” (2004):
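Exposure lasted 48 hours, with cells grown in 96-well plates and compounds tested at five concentrations. At the GI50, growth is halved.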 The source made the active and inactive calls. Cut-off read from the data, not from the text of the source: active = GI50 up to about 1.1 µM and inactive = higher.

Assays:
Experiment in all cases: DTP human tumour cell line panel, 48 h
786-0 = tested on: 786-0
A498 = tested on: A498
A549 = tested on: A549
ACHN = tested on: ACHN
BT-549 = tested on: BT-549
CAKI-1 = tested on: CAKI-1
CCRF-CEM = tested on: CCRF-CEM
COLO 205 = tested on: COLO 205
DU-145 = tested on: DU-145
EKVX = tested on: EKVX
HCC 2998 = tested on: HCC 2998
HCT-116 = tested on: HCT-116
HCT-15 = tested on: HCT-15
HL-60 = tested on: HL-60
HOP-62 = tested on: HOP-62
HT-29 = tested on: HT-29
IGROV-1 = tested on: IGROV-1
K562 = tested on: K562
KM12 = tested on: KM12
LOX IMVI = tested on: LOX IMVI
MCF7 = tested on: MCF7
MDA-MB-231 = tested on: MDA-MB-231
MDA-MB-435 = tested on: MDA-MB-435
MDA-N = tested on: MDA-N
MOLT-4 = tested on: MOLT-4
Malme-3M = tested on: Malme-3M
NCI-H226 = tested on: NCI-H226
NCI-H23 = tested on: NCI-H23
NCI-H460 = tested on: NCI-H460
NCI/ADR-RES = tested on: NCI/ADR-RES
OVCAR-3 = tested on: OVCAR-3
OVCAR-4 = tested on: OVCAR-4
OVCAR-5 = tested on: OVCAR-5
OVCAR-8 = tested on: OVCAR-8
RPMI-8226 = tested on: RPMI-8226
RXF 393 = tested on: RXF 393
SF-268 = tested on: SF-268
SF-295 = tested on: SF-295
SF-539 = tested on: SF-539
SK-MEL-28 = tested on: SK-MEL-28
SK-MEL-5 = tested on: SK-MEL-5
SK-OV-3 = tested on: SK-OV-3
SN12C = tested on: SN12C
SNB-19 = tested on: SNB-19
SNB-75 = tested on: SNB-75
SW-620 = tested on: SW-620
T47D = tested on: T47D
TK-10 = tested on: TK-10
U-251 = tested on: U-251
UACC-257 = tested on: UACC-257
UACC-62 = tested on: UACC-62
UO-31 = tested on: UO-31
HOP-92 = tested on: HOP-92
Hs-578T = tested on: Hs-578T
NCI-H522 = tested on: NCI-H522
PC-3 = tested on: PC-3
SK-MEL-2 = tested on: SK-MEL-2
SR = tested on: SR
M14 = tested on: M14

For O=c1nc2n(cc1/C=C\Br)C1CC(O)C(CO2)O1 (stereo unspecified), the GI50 (786-0) was > 100 µM (inactive), the GI50 (A498) was 49.9 µM (inactive) and the GI50 (A549) was > 100 µM (inactive). The GI50 (ACHN) was > 100 µM (inactive), the GI50 (BT-549) was > 100 µM (inactive) and the GI50 (CAKI-1) was > 100 µM (inactive). The GI50 (CCRF-CEM) was 36.7 µM (inactive), the GI50 (COLO 205) was > 100 µM (inactive) and the GI50 (DU-145) was > 100 µM (inactive). For the same compound, the GI50 (EKVX) was > 100 µM (inactive), the GI50 (HCC 2998) was > 100 µM (inactive) and the GI50 (HCT-116) was > 100 µM (inactive). For the same compound, the GI50 (HCT-15) was > 100 µM, the GI50 (HL-60) was 0.792 µM (active) and the GI50 (HOP-62) was > 100 µM (inactive). The GI50 (HT-29) was > 100 µM (inactive), the GI50 (IGROV-1) was > 100 µM (inactive) and the GI50 (K562) was 5.16 µM (inactive). For the same compound, the GI50 (KM12) was > 100 µM (inactive), the GI50 (LOX IMVI) was > 100 µM (inactive) and the GI50 (MCF7) was > 100 µM (inactive). The GI50 (MDA-MB-231) was > 100 µM (inactive), the GI50 (MDA-MB-435) was > 100 µM (inactive) and the GI50 (MDA-N) was > 100 µM (inactive). The GI50 (MOLT-4) was > 100 µM (inactive), the GI50 (Malme-3M) was > 100 µM (inactive) and the GI50 (NCI-H226) was > 100 µM (inactive). The GI50 (NCI-H23) was > 100 µM (inactive), the GI50 (NCI-H460) was > 100 µM (inactive) and the GI50 (NCI/ADR-RES) was > 100 µM (inactive). The GI50 (OVCAR-3) was > 100 µM (inactive), the GI50 (OVCAR-4) was > 100 µM (inactive) and the GI50 (OVCAR-5) was > 100 µM (inactive). The GI50 (OVCAR-8) was > 100 µM (inactive), the GI50 (RPMI-8226) was > 100 µM (inactive) and the GI50 (RXF 393) was 25 µM (inactive). For the same compound, the GI50 (SF-268) was > 100 µM (inactive), the GI50 (SF-295) was > 100 µM (inactive) and the GI50 (SF-539) was 38.4 µM (inactive). For the same compound, the GI50 (SK-MEL-28) was > 100 µM (inactive), the GI50 (SK-MEL-5) was > 100 µM (inactive) and the GI50 (SK-OV-3) was > 100 µM (inactive). For the same compound, the GI50 (SN12C) was > 100 µM (inactive), the GI50 (SNB-19) was > 100 µM (inactive) and the GI50 (SNB-75) was > 100 µM (inactive). For the same compound, the GI50 (SW-620) was > 100 µM (inactive), the GI50 (T47D) was > 100 µM (inactive) and the GI50 (TK-10) was > 100 µM (inactive). For the same compound, the GI50 (U-251) was > 100 µM (inactive), the GI50 (UACC-257) was > 100 µM (inactive) and the GI50 (UACC-62) was > 100 µM (inactive). For the same compound, the GI50 (UO-31) was > 100 µM (inactive).

For CN1CCN(Cn2nc(COc3ccc(Cl)cc3)n(/N=C/c3ccc(-c4ccc(Cl)cc4Cl)o3)c2=S)CC1, the GI50 (786-0) was 5.12 µM (inactive), the GI50 (A498) was 18.3 µM (inactive) and the GI50 (ACHN) was 19.7 µM (inactive). The GI50 (CAKI-1) was 14.2 µM (inactive), the GI50 (CCRF-CEM) was 0.247 µM (active) and the GI50 (DU-145) was 11.9 µM (inactive). The GI50 (EKVX) was 14.5 µM (inactive), the GI50 (HCC 2998) was 3.18 µM (inactive) and the GI50 (HCT-116) was 13.4 µM (inactive). The GI50 (HCT-15) was 18.6 µM, the GI50 (HOP-62) was 5 µM (inactive) and the GI50 (HOP-92) was 8.47 µM (inactive). The GI50 (HT-29) was 3.7 µM (inactive), the GI50 (Hs-578T) was 3.72 µM (inactive) and the GI50 (IGROV-1) was 10.6 µM (inactive). For the same compound, the GI50 (K562) was 15.2 µM (inactive), the GI50 (KM12) was 3.18 µM (inactive) and the GI50 (LOX IMVI) was 5.57 µM (inactive). The GI50 (MCF7) was 8.32 µM (inactive), the GI50 (MDA-MB-231) was 7 µM (inactive) and the GI50 (MDA-MB-435) was 2.55 µM (inactive). For the same compound, the GI50 (MDA-N) was 4.02 µM (inactive), the GI50 (MOLT-4) was 16.7 µM (inactive) and the GI50 (NCI-H226) was 19.6 µM (inactive). The GI50 (NCI-H460) was 17.8 µM (inactive), the GI50 (NCI-H522) was 3.72 µM (inactive) and the GI50 (NCI/ADR-RES) was 20.5 µM (inactive). For the same compound, the GI50 (OVCAR-3) was 14.1 µM (inactive), the GI50 (OVCAR-4) was 3.05 µM (inactive) and the GI50 (OVCAR-5) was 6.46 µM (inactive). For the same compound, the GI50 (OVCAR-8) was 4.89 µM (inactive), the GI50 (PC-3) was 11.2 µM (inactive) and the GI50 (RXF 393) was 2.33 µM (inactive). For the same compound, the GI50 (SF-268) was 3.95 µM (inactive), the GI50 (SF-295) was 13.4 µM (inactive) and the GI50 (SF-539) was 26.4 µM (inactive). The GI50 (SK-MEL-28) was 13.9 µM (inactive), the GI50 (SK-MEL-2) was 18.3 µM (inactive) and the GI50 (SK-MEL-5) was 14.8 µM (inactive). For the same compound, the GI50 (SK-OV-3) was 15.7 µM (inactive), the GI50 (SR) was 2.63 µM (inactive) and the GI50 (SW-620) was 5.06 µM (inactive). The GI50 (T47D) was 6.64 µM (inactive), the GI50 (TK-10) was 14.5 µM (inactive) and the GI50 (U-251) was 10.9 µM (inactive). The GI50 (UACC-257) was 17.6 µM (inactive) and the GI50 (UO-31) was 17.6 µM (inactive).

With CC1=NN(c2cccc(Cl)c2)C2(SCC(=O)N2c2nc3ccccc3s2)/C1=C\c1ccccc1 (stereo unspecified) the GI50 (786-0) was 16.6 µM (inactive), the GI50 (A498) was 23.2 µM (inactive) and the GI50 (ACHN) was 19.6 µM (inactive). For the same compound, the GI50 (CAKI-1) was 20 µM (inactive), the GI50 (CCRF-CEM) was 28.2 µM (inactive) and the GI50 (DU-145) was 22 µM (inactive). The GI50 (EKVX) was 36.4 µM (inactive), the GI50 (HCC 2998) was 14.2 µM (inactive) and the GI50 (HCT-116) was 15.9 µM (inactive). The GI50 (HCT-15) was 16 µM, the GI50 (HL-60) was 30.1 µM (inactive) and the GI50 (HOP-62) was 22.3 µM (inactive). The GI50 (HOP-92) was 7.21 µM (inactive), the GI50 (HT-29) was 21 µM (inactive) and the GI50 (Hs-578T) was 18.4 µM (inactive). The GI50 (IGROV-1) was 17.9 µM (inactive), the GI50 (K562) was 17.6 µM (inactive) and the GI50 (KM12) was 16.1 µM (inactive). For the same compound, the GI50 (LOX IMVI) was 25.5 µM (inactive), the GI50 (M14) was 23.7 µM (inactive) and the GI50 (MCF7) was 23.6 µM (inactive). The GI50 (MDA-MB-231) was 24.4 µM (inactive), the GI50 (MDA-MB-435) was 18.3 µM (inactive) and the GI50 (MDA-N) was 20.9 µM (inactive). For the same compound, the GI50 (MOLT-4) was 21.2 µM (inactive), the GI50 (NCI-H226) was 19 µM (inactive) and the GI50 (NCI-H23) was 20.2 µM (inactive). For the same compound, the GI50 (NCI-H460) was 15.3 µM (inactive), the GI50 (NCI-H522) was 14.6 µM (inactive) and the GI50 (NCI/ADR-RES) was 24.9 µM (inactive). For the same compound, the GI50 (OVCAR-3) was 20.8 µM (inactive), the GI50 (OVCAR-4) was 16.7 µM (inactive) and the GI50 (OVCAR-5) was 22.4 µM (inactive). The GI50 (OVCAR-8) was 19.5 µM (inactive), the GI50 (PC-3) was 23.6 µM (inactive) and the GI50 (RPMI-8226) was 18.7 µM (inactive). The GI50 (RXF 393) was 21.6 µM (inactive), the GI50 (SF-268) was 21.4 µM (inactive) and the GI50 (SF-295) was 21.6 µM (inactive). The GI50 (SF-539) was 26.4 µM (inactive), the GI50 (SK-MEL-28) was 27.5 µM (inactive) and the GI50 (SK-MEL-2) was 22.5 µM (inactive). For the same compound, the GI50 (SK-MEL-5) was 12.6 µM (inactive), the GI50 (SK-OV-3) was 19.9 µM (inactive) and the GI50 (SNB-75) was 86.5 µM (inactive). The GI50 (SR) was 22.3 µM (inactive), the GI50 (SW-620) was 19.6 µM (inactive) and the GI50 (T47D) was 27.1 µM (inactive). For the same compound, the GI50 (TK-10) was 40.6 µM (inactive), the GI50 (U-251) was 19.7 µM (inactive) and the GI50 (UACC-257) was 21.9 µM (inactive). For the same compound, the GI50 (UO-31) was 20.1 µM (inactive).
